This is an account of results in ChEMBL document CHEMBL4406832, “Discovery of novel series of 2-substituted benzo[d]oxazol-5-amine derivatives as multi-target directed ligands for the treatment of Alzheimer's disease” (Eur J Med Chem, 2019).

In one data set the target is Cholinesterase (Equus caballus, UniProt P81908). Put plainly: Inhibition of equine serum BuChE using butyrylthiocholine iodide as substrate preincubated for 30 mins followed by substrate addition and measured for 1 min by DTNB reagent-based spectrophotometric analysis.
Cholinesterase, sequence (P81908 whole entry): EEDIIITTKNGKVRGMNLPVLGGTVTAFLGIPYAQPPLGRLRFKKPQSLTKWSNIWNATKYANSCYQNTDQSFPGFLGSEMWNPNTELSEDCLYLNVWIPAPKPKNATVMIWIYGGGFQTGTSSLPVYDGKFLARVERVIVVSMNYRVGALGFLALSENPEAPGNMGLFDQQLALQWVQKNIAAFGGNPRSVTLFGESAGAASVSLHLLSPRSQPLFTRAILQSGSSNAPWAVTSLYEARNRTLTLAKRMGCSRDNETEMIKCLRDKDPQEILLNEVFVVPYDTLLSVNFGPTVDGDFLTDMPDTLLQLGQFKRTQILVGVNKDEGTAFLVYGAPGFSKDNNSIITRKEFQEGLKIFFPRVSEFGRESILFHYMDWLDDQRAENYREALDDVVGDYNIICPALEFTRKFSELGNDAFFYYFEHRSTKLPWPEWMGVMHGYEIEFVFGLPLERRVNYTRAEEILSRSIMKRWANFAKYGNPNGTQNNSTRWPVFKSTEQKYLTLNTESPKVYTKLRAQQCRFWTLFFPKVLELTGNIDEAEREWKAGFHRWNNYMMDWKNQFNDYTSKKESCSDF
The next data set has as its target Acetylcholinesterase (Electrophorus electricus, UniProt O42275). Briefly: Inhibition of electric eel AChE using acetylthiocholine iodide as substrate preincubated with enzyme for 30 mins followed by substrate addition and measured for 1 min by DTNB reagent-based spectrophotometric analysis.
The nature of data set [1]: Permeability of the compound in pH 7.4 PBS buffer incubated for 18 hrs by PAMPA-BBB assay.
Data set [2] can be described thus: Selectivity index, ratio of IC50 for equine serum BuChE to IC50 for electric eel AChE.
Data set [3] has as its system Rattus norvegicus. Briefly: Improvement in learning and spatial memory in icv infused amyloid beta (1 to 42)-induced Wistar rat model of Alzheimer's disease assessed as reduction in degeneration of neuron in hippocampal region at 5 mg/kg, po administered daily for 7 days starting from 7 days post surgery and measured after 6 days by H and E staining-based microscopic analysis. The class given is functional, organism-based.

The test system of data set [4] is Rattus norvegicus. Briefly: Improvement in learning and spatial memory in icv infused amyloid beta (1 to 42)-induced Wistar rat model of Alzheimer's disease assessed as reduction in escape latency at 5 mg/kg, po administered daily for 7 days starting from 7 days post surgery and measured daily for 5 days by Morris water maze test. In kind it is functional, organism-based.

Data set [5] has as its system Rattus norvegicus. Briefly: Cognitive enhancing effect in scopolamine-induced Wistar rat model of amnesia assessed as increase in spontaneous alteration at 5 mg/kg pretreated for 7 days followed by scopolamine challenge and measured after 30 mins by Y-maze test. The class given is functional, organism-based.
The test system of data set [6] is Rattus norvegicus. Briefly: Improvement in learning and spatial memory in icv infused amyloid beta (1 to 42)-induced Wistar rat model of Alzheimer's disease assessed as increase in time spent in platform zone at 5 mg/kg, po administered daily for 7 days starting from 7 days post surgery and measured after 6 days by Morris water maze test. The class given is functional, organism-based.

Data set [7] concerns Rattus norvegicus. Briefly: Improvement in learning and spatial memory in icv infused amyloid beta (1 to 42)-induced Wistar rat model of Alzheimer's disease assessed as increase in number of platform crossing at 5 mg/kg, po administered daily for 7 days starting from 7 days post surgery and measured after 6 days by Morris water maze test. The class given is functional, organism-based.

In the next data set the test system is SH-SY5Y. Briefly: Neuroprotective activity against amyloid beta (1 to 42)-induced cytotoxicity in human SH-SY5Y cells assessed as increase in cell viability at 10 to 20 uM measured after 72 hrs by MTT assay. In kind it is functional, cell-based.
For data set [8], the system named is Rattus norvegicus. Briefly: Improvement in learning and spatial memory in icv infused amyloid beta (1 to 42)-induced Wistar rat model of Alzheimer's disease assessed as reduction in disordered neuron in hippocampal region at 5 mg/kg, po administered daily for 7 days starting from 7 days post surgery and measured after 6 days by H and E staining-based microscopic analysis. The class given is functional, organism-based.

Structures are written as SMILES. Calls of active or inactive are those of the source. The calls are words filed in the database; no cut-off is given here.

Acetylcholinesterase, sequence (O42275 whole entry): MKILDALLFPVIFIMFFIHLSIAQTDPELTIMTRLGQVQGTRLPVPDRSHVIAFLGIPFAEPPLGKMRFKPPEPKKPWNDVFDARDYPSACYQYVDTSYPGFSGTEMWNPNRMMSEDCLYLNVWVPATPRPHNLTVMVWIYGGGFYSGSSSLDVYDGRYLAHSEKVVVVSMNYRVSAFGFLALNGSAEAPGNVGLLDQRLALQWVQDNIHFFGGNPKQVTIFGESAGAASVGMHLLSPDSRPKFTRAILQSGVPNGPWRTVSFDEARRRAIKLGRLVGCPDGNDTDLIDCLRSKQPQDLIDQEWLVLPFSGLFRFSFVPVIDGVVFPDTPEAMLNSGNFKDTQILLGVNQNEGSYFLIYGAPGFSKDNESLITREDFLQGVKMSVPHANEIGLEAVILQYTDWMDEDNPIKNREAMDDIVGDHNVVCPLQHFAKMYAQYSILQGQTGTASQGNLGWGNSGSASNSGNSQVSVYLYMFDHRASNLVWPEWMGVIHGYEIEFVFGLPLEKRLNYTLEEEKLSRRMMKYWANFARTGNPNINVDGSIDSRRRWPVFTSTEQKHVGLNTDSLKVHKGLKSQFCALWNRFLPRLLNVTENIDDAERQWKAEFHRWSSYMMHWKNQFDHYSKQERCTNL

The IC50 is the concentration that inhibits the measured activity by half. In general, Papp refers to a coefficient for how fast a substance crosses the barrier. Low readings indicate slow passage, high ones fast passage. In the case of `Nc1ccc2oc(N3CCN(c4ccc(Br)cc4)CC3)nc2c1`, the IC50 came to 8760 nM against Cholinesterase and 1050 nM against Acetylcholinesterase. The Papp at 18 h in [1] turned out to be 10.5 ×10⁻⁶ cm/s. Further, in data set [2], the Ratio IC50 amounted to 8.3.
For the molecule `Nc1ccc2oc(N3CCN(Cc4ccc(Cl)cc4)CC3)nc2c1`, the IC50 at Cholinesterase amounted to 3850 nM; at Acetylcholinesterase it was 747 nM. The Papp at 18 h in data set [1] is 10.7 ×10⁻⁶ cm/s. For the same molecule, in data set [2], the Ratio IC50 worked out at 5.1.
Turning to `COc1ccc(C(=O)N2CCN(c3nc4cc(N)ccc4o3)CC2)cc1`, the IC50 against Cholinesterase was 7330 nM; against Acetylcholinesterase, 275 nM. For the same molecule, the apparent permeability (Papp) at 18 h in [1] is 9.71 ×10⁻⁶ cm/s. Also, the Ratio IC50 in [2] stood at 26.6.
For `COc1ccc(CN2CCN(c3nc4cc(N)ccc4o3)CC2)cc1`, in that order: 6330 nM, 748 nM, 9.49 ×10⁻⁶ cm/s and 8.4.
Consider `Nc1ccc2oc(N3CCN(Cc4ccc(Br)cc4)CC3)nc2c1`, for which the results for the IC50 against Cholinesterase and against Acetylcholinesterase were 2970 nM and 379 nM, respectively. Further, the apparent permeability coefficient (Papp) at 18 h in [1] is 11.3 ×10⁻⁶ cm/s. Besides, the Ratio IC50 in data set [2] was determined as 7.8.
`Cc1ccc(N2CCN(c3nc4cc(N)ccc4o3)CC2)cc1`: the half-inhibitory concentration (IC50) against Cholinesterase worked out at 9010 nM; against Acetylcholinesterase, 4180 nM. In data set [1], the Papp at 18 h was 10.4 ×10⁻⁶ cm/s. For the same molecule, the Ratio IC50 in data set [2] was 2.1.
For `Nc1ccc2oc(N3CCOCC3)nc2c1`, in that order: 32300 nM, 7030 nM, 7.44 ×10⁻⁶ cm/s and 4.5.
As for `COc1cccc(C(=O)N2CCN(c3nc4cc(N)ccc4o3)CC2)c1`, the half-inhibitory concentration (IC50) was found to be 11700 nM against Cholinesterase and 550 nM against Acetylcholinesterase. Also, the apparent permeability (Papp) at 18 h in data set [1] came to 9.54 ×10⁻⁶ cm/s. In addition, in data set [2], the Ratio IC50 is 21.3.
Consider `Nc1ccc2oc(N3CCN(Cc4ccccc4)CC3)nc2c1`, for which the values for the IC50 at Cholinesterase and against Acetylcholinesterase were 6760 nM and 921 nM, respectively. This molecule also registered a Papp at 18 h in data set [1] of 10.2 ×10⁻⁶ cm/s. Also, the Ratio IC50 in [2] worked out at 7.3.
The corresponding values for `Nc1ccc2oc(NC3CCN(Cc4ccccc4)CC3)nc2c1` are 2270 nM, 559 nM, 9.47 ×10⁻⁶ cm/s and 4.
Consider `COc1cc2c(cc1OC)C(=O)C(CC1CCN(Cc3ccccc3)CC1)C2` (stereo not drawn), for which the result in the data set on Rattus norvegicus [3], with Rattus norvegicus [4], in the data set on Rattus norvegicus [5], in the data set with Rattus norvegicus [6], in the data set with Rattus norvegicus [7] and in the data set with SH-SY5Y was Active. For the same molecule, the outcome in the data set with Rattus norvegicus [8] was Active.
Take `Nc1ccc2oc(N3CCN(C(=O)c4cccc(Br)c4)CC3)nc2c1`: the IC50 against Cholinesterase amounted to 2680 nM; at Acetylcholinesterase, 163 nM. In addition, the apparent permeability (Papp) at 18 h in [1] is 10.5 ×10⁻⁶ cm/s. Also, the Ratio IC50 in data set [2] worked out at 16.4.
For `Nc1ccc2oc(N3CCN(C(=O)c4ccccc4Br)CC3)nc2c1`, in that order: 6190 nM, 445 nM, 10.6 ×10⁻⁶ cm/s and 13.9.
Take `COc1cc2c(cc1OC)C(=O)C(Cc1cc[n+](Cc3ccccc3)cc1Br)C2` (stereo not drawn): at Acetylcholinesterase, the IC50 was 0.36 nM.
Take `Nc1ccc2oc(N3CCN(C(=O)c4ccccc4)CC3)nc2c1`: the IC50 against Cholinesterase amounted to 6050 nM; against Acetylcholinesterase, 801 nM.
As to `Nc1ccc2oc(N3CCN(c4ccc(Cl)cc4)CC3)nc2c1`, the IC50 is 11100 nM against Cholinesterase and 1960 nM against Acetylcholinesterase. This molecule also displayed an apparent permeability (Papp) at 18 h in data set [1] of 10.6 ×10⁻⁶ cm/s. The Ratio IC50 in data set [2] stood at 5.6.
`Nc1ccc2oc(N3CCCCC3)nc2c1`: the values for the IC50 on Cholinesterase and on Acetylcholinesterase were 24200 nM and 5680 nM, respectively.
On to `Nc1ccc2oc(N3CCN(C(=O)c4ccccc4F)CC3)nc2c1`, for which the 50% inhibitory concentration (IC50) against Cholinesterase is 8390 nM; against Acetylcholinesterase, 337 nM. The Papp at 18 h in [1] was 9.55 ×10⁻⁶ cm/s. Further, the Ratio IC50 in data set [2] was determined as 24.9.
As for `C#CCN(Cc1ccc2cccc(O)c2n1)C(C#N)CCC1CCN(Cc2ccccc2)CC1` (stereo not drawn), 29 nM corresponded to half-maximal inhibition on Acetylcholinesterase (IC50).
On to `Nc1ccc2oc(N3CCN(C(=O)c4ccc5c(c4)OCO5)CC3)nc2c1`, for which the values for the IC50 on Cholinesterase and at Acetylcholinesterase were 1520 nM and 616 nM, respectively. Also, the apparent permeability (Papp) at 18 h in [1] is 9.64 ×10⁻⁶ cm/s. The Ratio IC50 in data set [2] amounted to 2.4.
The corresponding values for `Cc1ccc(CN2CCN(c3nc4cc(N)ccc4o3)CC2)cc1` are 5190 nM, 807 nM, 10.6 ×10⁻⁶ cm/s and 6.4.
With `Nc1ccc2oc(N3CCN(c4ccc(F)cc4)CC3)nc2c1`, the concentration for half-maximal inhibition (IC50) on Cholinesterase worked out at 6480 nM; at Acetylcholinesterase, 1440 nM. This molecule also registered a Papp at 18 h in data set [1] of 10.7 ×10⁻⁶ cm/s. Further, the Ratio IC50 in [2] was 4.4.
The corresponding values for `COc1ccccc1C(=O)N1CCN(c2nc3cc(N)ccc3o2)CC1` are 7380 nM, 927 nM, 9.21 ×10⁻⁶ cm/s and 7.9.
For `Nc1ccc2oc(N3CCN(c4ccccc4)CC3)nc2c1`, in that order: 16800 nM, 2090 nM, 10.3 ×10⁻⁶ cm/s and 8.
The corresponding values for `COc1ccc(Cl)cc1C(=O)N1CCN(c2nc3cc(N)ccc3o2)CC1` are 1360 nM, 321 nM, 8.82 ×10⁻⁶ cm/s and 4.2.
On to `Nc1ccc2oc(N3CCN(Cc4ccc(F)cc4)CC3)nc2c1`, for which the results for the 50% inhibitory concentration (IC50) against Cholinesterase and on Acetylcholinesterase were 3110 nM and 525 nM, respectively. In addition, the Papp at 18 h in data set [1] is 10.5 ×10⁻⁶ cm/s. The Ratio IC50 in [2] was 5.9.
The corresponding values for `Nc1ccc2oc(N3CCN(C(=O)c4ccc(F)cc4)CC3)nc2c1` are 817 nM, 73 nM, 9.67 ×10⁻⁶ cm/s and 11.1.
Consider `Nc1ccc2oc(N3CCN(C(=O)c4ccccc4Cl)CC3)nc2c1`, for which the half-maximal inhibitory concentration (IC50) at Cholinesterase amounted to 4860 nM; against Acetylcholinesterase, 559 nM. Besides, the apparent permeability (Papp) at 18 h in data set [1] was found to be 10.3 ×10⁻⁶ cm/s. In addition, the Ratio IC50 in data set [2] was 8.6.
As to `CC(C)c1ccc(CN2CCN(c3nc4cc(N)ccc4o3)CC2)cc1`, the 50% inhibitory concentration (IC50) on Cholinesterase was 11300 nM; against Acetylcholinesterase it was 943 nM. In [1], the apparent permeability (Papp) at 18 h came out at 11.6 ×10⁻⁶ cm/s. The Ratio IC50 in data set [2] stood at 11.9.
For the molecule `Nc1ccc2oc(N3CCN(C(=O)c4ccc(Cl)cc4)CC3)nc2c1`, the IC50 on Cholinesterase was found to be 3320 nM; on Acetylcholinesterase, 109 nM. Moreover, in data set [1], the Papp at 18 h is 10.4 ×10⁻⁶ cm/s. Further, the Ratio IC50 in data set [2] was 30.4.
On to `COc1ccc(N2CCN(c3nc4cc(N)ccc4o3)CC2)cc1`, for which the IC50 worked out at 13000 nM against Cholinesterase and 2100 nM on Acetylcholinesterase. In data set [1], this molecule yielded an apparent permeability (Papp) at 18 h of 10.5 ×10⁻⁶ cm/s. In [2], the Ratio IC50 stood at 6.1.
For the molecule `Nc1ccc2oc(N3CCN(C(=O)c4cccc(F)c4)CC3)nc2c1`, the IC50 against Cholinesterase is 5540 nM; against Acetylcholinesterase, 231 nM. Besides, the Papp at 18 h in [1] turned out to be 9.51 ×10⁻⁶ cm/s. For the same molecule, the Ratio IC50 in data set [2] is 23.9.
For `Nc1ccc2oc(N3CCN(CCc4ccccc4)CC3)nc2c1`, in that order: 957 nM, 393 nM, 13.4 ×10⁻⁶ cm/s and 2.4.
The corresponding values for `Nc1ccc2oc(N3CCN(C(=O)c4cccc(Cl)c4)CC3)nc2c1` are 4560 nM, 241 nM, 10.4 ×10⁻⁶ cm/s and 18.9.
For `Nc1ccc2oc(N3CCN(c4ccccn4)CC3)nc2c1`, the IC50 stood at 15100 nM against Cholinesterase and 3310 nM against Acetylcholinesterase. This molecule also came in with an apparent permeability coefficient (Papp) at 18 h in data set [1] of 9.44 ×10⁻⁶ cm/s. The Ratio IC50 in data set [2] is 4.5.
